Our source for the Atoh1 expression, Myo7a expression and Pou4f3 expression values is article PMC8414802, “Hair Cell Generation in Cochlear Culture Models Mediated by Novel γ-Secretase Inhibitors” (Frontiers in Cell and Developmental Biology, 2021).

The subject of the experiment is hair cell genes Atoh1, Pou4f3, Myo7a in OC explants. Put plainly: Hair cell gene expression in organ of Corti explants (RT-PCR). It counts as cell-based, mouse. The conditions noted are these: 4 days, vs DMSO. The procedure: OC explants were isolated from postnatal day 2 (P2) Wistar rats, P0-P2 mice (Lgr5-GFP or Atoh1-nGFP mice). Dissection of the cochlea under a stereomicroscope (Nikon SMZ800, Japan) allowed OC separation from stria vascularis and modiolus, and the sensory epithelium was plated with hair cells facing up on Cell-Tak (Corning, United States)-coated transwell-clear inserts (6-well format, 0.4 μm pore, Corning, United States). Dissection medium was exchanged for 1.5 ml full otic medium supplemented with 10% FBS (Invitrogen) and 0.01% Ampicillin (Sigma), added under the insert membrane, maintaining the OC under a thin film of medium during culture at 37°C. 5-ethyl-2′-deoxyuridine (EdU, 5 μM, Life Technologies) was added directly in the medium when indicated.
Concentrations of small molecule GSIs {LY411575, CPD3, CPD8, DAPT (N-[N-(3,5-Difluorophenacetyl)-L-alanyl]-S-phenylglycine t-butyl ester; Sigma)} were prepared in DMSO and are indicated in Figure Legends and Results. DMSO included as Control. Treatment groups were assigned randomly.
Cells or tissue were lysed using RLT Lysis Buffer (Qiagen) and high purity RNA was prepared on the MagNA Pure instrument using MagNA Pure 96 Cellular RNA LV Kit (Roche). Reagents from Thermo Fisher were used for cDNA synthesis by reverse transcription using random hexamers. Resulting cDNA was RNAse H treated and amplified by TaqMan GEX mastermix and PCR primers and probes for human ATOH1 (Hs00944192_s1) and TBP (Hs00427620_m1), mouse Tbp (Mm00446971_m1), Atoh1 (Mm00476035_s1), Hes5 (Mm00439311_g1), Pouf4s (Mm04213795_s1), and Myo7a (Mm01274015_m1) on the Applied Biosystems QuantStudio 7 Flex Real-Time PCR System. Normalized to Tbp, relative gene expression fold-change was quantified and compared between experimental and control conditions by ΔΔCt calculation.
FIGURE 2 GSI-mediated induction of hair cell gene expression and de novo generation of hair cells in the neonatal cochlear sensory epithelium. (A) Gene expression changes of Atoh1, Pou4f3, and Myo7a in response to Notch pathway inhibition by CPD3 (solid lines, triangles) and CPD8 (dashed lines, open square) in otic spheres. Gene expression is reported as fold-change relative to carrier control-treated (DMSO, 0.05%). (n = 9–12). […] (B) Gene expression analysis for the hair cell genes Atoh-1, Myo7a, and Pou4f3. DMSO control n = 13, CPD3 n = 12, LY411575 n = 9, DAPT n = 6 from 2–4 independent experiments. OC explants were cultured for 4 days with/without GSI prior to lysis and analysis. One-way ANOVA with Dunnett’s multiple comparison test, each condition compared to DMSO control. (*p < 0.05, **p < 0.005, ***p < 0.001). (C) Cell counts of Atoh1 positive HCs (OHC left, IHC right) in the mouse cochlear sensory epithelium in the mid-apex region after 7 days in culture with different γ-secretase inhibitors. One-way ANOVA Dunnett’s multiple comparison test, each condition compared to DMSO control. (*p < 0.05; n = 3–5 independent experiments). (D) Quantification of Pou4f3 positive HCs (OHC left, IHC right) in the cochlear sensory epithelium from P2 rats in the apical domain after 8 days in culture with different γ-secretase inhibitors. One-way ANOVA with Dunnett’s multiple comparison test, each condition compared to DMSO control (*p < 0.05, n = 3). Representative immunohistological images of the apical domain after 8 days incubation (inset). scale bar = 20 μm. (E) Quantification of Pou4f3 positive OHCs in the apex, middle and basal domain of organ of Corti explants from rats after 4 days of CPD3 treatment compared to DMSO (*p < 0.05, unpaired t-test) n = 4–6 explants from 2 independent experiments.

Molecules are shown by their SMILES.

As for `COc1ccc2c(c1)N1CCC(C)(C)C1=CC(=O)[C@H]2NC(=O)[C@H](C)NC(=O)CCC(F)(F)F` [CPD3], for the setting “1 μM”, the Atoh1 expression was 3.7 ± 0.54 fold, the Myo7a expression was 1.73 ± 0.33 fold and the Pou4f3 expression is listed as 2.04 ± 0.35 fold.

For `C[C@H](NC(=O)[C@@H](O)c1cc(F)cc(F)c1)C(=O)N[C@@H]1C(=O)N(C)c2ccccc2-c2ccccc21` [LY411575], where the note is “5 μM”, the Atoh1 expression stood at 4.34 ± 0.82 fold, the Myo7a expression is listed as 1.42 ± 0.31 fold and the Pou4f3 expression was 1.46 ± 0.26 fold.
